According to patent publication US5494895A, “Scorpion peptide margatoxin with immunosuppressant activity” (Merck & Co., Inc., priority 1993, dated 1996):
Peptide text beside a SMILES is read from it.

Experiments:
[1] = target: T1, Kv 1.3 of human T lymphocytes (Homo sapiens, UniProt P22001); assay: [125I]ChTX binding to human T cells
T1 construct: endogenous in cells; host or cells: purified human peripheral blood T lymphocytes
Procedure: In addition to being tested for competition for [^125 I]ChTX binding to rat brain and bovine aortic smooth muscle, MgTX was evaluated for its effects on [^125 I]ChTX binding to human T lymphocytes and to plasma membranes prepared from Jurkat cells, a human T-cell leukemia line. MgTX competition for [^125 I]ChTX binding to human T cells was performed as described by Lin, et al., J. Exp. Med. 177, 637-645, 1993. Binding experiments using monocyte-depleted, E-rosetted human T cells were carried out in isotonic sucrose with 5 mM KCl, 5 mM NaCl, 6 mM glucose and 10 mM HEPES, pH 8.0 until equilibrium was achieved. The procedure for binding to plasma membranes from Jurkat Cells is similar except that the binding solution was 3 mM KCl, 7 mM NaCl, 10 mM HEPES, pH 8.0. Free ligand was removed from bound by filtration through Whatman GF/C glass fiber filters (pretreated with 0.5% polyethylenimine). […] Hill coefficients were 2 in both cases.

[2] = target: T2, Kv 1 (rat Kv 1.5) (Rattus norvegicus, UniProt P19024); assay: Two-electrode voltage clamp of Xenopus oocytes expressing Kv 1 (Kv 1.5); format: cell-based; conditions: 200 nM MgTX
T2 construct: expressed in transfected cells; host or cells: Xenopus oocytes injected with RNA transcribed in vitro from the cDNA clone
Procedure: (§1) Ionic currents were also recorded from Xenopus oocytes that had been injected with RNA transcribed in vitro from one or another of the following K^+ channel cDNA clones. Kv 1 (rat Kv 1.5), rat or human Kv 3 (rat Kv 1.3; human Kv 1.3), Kv 4 (rat Kv 3.1 ), rat ISK, Kv 2 (rat Kv 1.6) or Drosophila Shaker-H4. The names of the clones are listed as originally published, with the appropriate parenthetical designation according to the unified gene nomenclature proposed by Chandy. Shaker-H4 is a splice variant from the original Drosophila Shaker K^+ channel gene. Kv 1.3 is the ChTX-sensitive delayed rectifier current found in rat and human T lymphocytes (data from rat and human clones were indistinguishable and were combined) and it is a member of the Shaker family. Kv 1.5 is a channel cloned from rat (Swanson et al., Neuron, 4, 929, 1990) and is another member of the Shaker family. The Kv 1.5 transcript has been detected in pancreatic β cells as described in Philipson, et al., Proc. Natl. Acad. Sci. U.S.A. 88, 53, 1991. […] The ISK transcript has been detected in lymphocytes (Attali et al., J. Biol. Chem,. 267, 8650, 1992), but no evidence of the IKs current has been found in those cells.
(§2) Methods for oocyte isolation and micro-injection were previously described in Goldin, Meth. […] Currents expressed in oocytes were measured using a DAGAN model CA-1 two-electrode voltage clamp. […]

[3] = target: T3, Maxi-K channel (Bos taurus, UniProt Q28204); assay: [125I]ChTX binding to bovine aortic smooth muscle sarcolemmal membranes; conditions: concentrations up to 10 nM
T3 construct: from tissue; host or cells: bovine aortic smooth muscle sarcolemmal membranes
Procedure: The potency of MgTX as an inhibitor of [^125 I]ChTX binding to Kv 1.3 was evaluated. The binding of [^125 I]ChTX to either rat brain synaptic plasma membrane vesicles (Kv 1.3 channel; Vazquez et al., J. Biol. Chem. 265, 15564, 1990) or bovine aortic smooth muscle sarcolemmal membranes (Maxi-K channel; Vazquez et al., J. Biol. Chem. 264, 20402, 1989) was determined as described. Briefly, membrane vesicles were incubated with [^125 I]ChTX in the presence or absence of other added agents, until equilibrium was achieved. Separation of bound from free ligand was accomplished by filtration through GF/C glass fiber filters (WHATMAN) that had been presoaked in 0.5% polyethyleneimine. Nonspecific binding was determined in the presence of 10 nM unlabeled ChTX. Data from saturation experiments were analyzed in a Scatchard representation to determine Kd and Bmax values. Triplicate samples were obtained for each experimental point and the data were averaged. The standard deviation of the mean was typically less than 2%. […] As an indication of selectivity, MgTX had no effect on [^125 I]ChTX binding to the Maxi-K channel in smooth muscle membranes at concentrations up to 10 nM.

[4] = system: three different ChTX-sensitive, Ca2+-activated K+ channels of lymphocytes; conditions: even at 100 nM; cited from earlier work
[5] = target: T4, Kv 1.6 (Rattus norvegicus, UniProt P17659); assay: Two-electrode voltage clamp of Xenopus oocytes expressing Kv 2 (Kv 1.6); format: cell-based; conditions: read-out: concentration at which Kv 1.6 was half blocked
T4 construct: expressed in transfected cells; host or cells: Xenopus oocytes injected with RNA transcribed in vitro from the cDNA clone
Procedure: as §1, §2

[6] = system: human T cells; conditions: cited from earlier work

T1 sequence (P22001 whole entry): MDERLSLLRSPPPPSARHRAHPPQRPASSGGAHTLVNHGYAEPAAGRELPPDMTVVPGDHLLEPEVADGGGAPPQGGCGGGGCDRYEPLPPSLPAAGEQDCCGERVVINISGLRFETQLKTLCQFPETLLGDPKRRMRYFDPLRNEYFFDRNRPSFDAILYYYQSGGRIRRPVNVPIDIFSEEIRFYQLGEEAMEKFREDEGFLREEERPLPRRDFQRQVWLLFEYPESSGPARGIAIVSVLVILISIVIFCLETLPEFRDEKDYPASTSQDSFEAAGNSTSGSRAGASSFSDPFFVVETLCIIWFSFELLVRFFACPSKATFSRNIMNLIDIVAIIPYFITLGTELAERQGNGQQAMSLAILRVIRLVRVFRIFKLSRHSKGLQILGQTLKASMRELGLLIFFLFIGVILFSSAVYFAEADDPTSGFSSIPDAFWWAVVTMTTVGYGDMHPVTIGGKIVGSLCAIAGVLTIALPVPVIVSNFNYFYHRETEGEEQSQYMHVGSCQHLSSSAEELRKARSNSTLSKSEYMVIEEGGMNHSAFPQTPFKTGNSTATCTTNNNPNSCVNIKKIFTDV
T3 sequence (Q28204 whole entry): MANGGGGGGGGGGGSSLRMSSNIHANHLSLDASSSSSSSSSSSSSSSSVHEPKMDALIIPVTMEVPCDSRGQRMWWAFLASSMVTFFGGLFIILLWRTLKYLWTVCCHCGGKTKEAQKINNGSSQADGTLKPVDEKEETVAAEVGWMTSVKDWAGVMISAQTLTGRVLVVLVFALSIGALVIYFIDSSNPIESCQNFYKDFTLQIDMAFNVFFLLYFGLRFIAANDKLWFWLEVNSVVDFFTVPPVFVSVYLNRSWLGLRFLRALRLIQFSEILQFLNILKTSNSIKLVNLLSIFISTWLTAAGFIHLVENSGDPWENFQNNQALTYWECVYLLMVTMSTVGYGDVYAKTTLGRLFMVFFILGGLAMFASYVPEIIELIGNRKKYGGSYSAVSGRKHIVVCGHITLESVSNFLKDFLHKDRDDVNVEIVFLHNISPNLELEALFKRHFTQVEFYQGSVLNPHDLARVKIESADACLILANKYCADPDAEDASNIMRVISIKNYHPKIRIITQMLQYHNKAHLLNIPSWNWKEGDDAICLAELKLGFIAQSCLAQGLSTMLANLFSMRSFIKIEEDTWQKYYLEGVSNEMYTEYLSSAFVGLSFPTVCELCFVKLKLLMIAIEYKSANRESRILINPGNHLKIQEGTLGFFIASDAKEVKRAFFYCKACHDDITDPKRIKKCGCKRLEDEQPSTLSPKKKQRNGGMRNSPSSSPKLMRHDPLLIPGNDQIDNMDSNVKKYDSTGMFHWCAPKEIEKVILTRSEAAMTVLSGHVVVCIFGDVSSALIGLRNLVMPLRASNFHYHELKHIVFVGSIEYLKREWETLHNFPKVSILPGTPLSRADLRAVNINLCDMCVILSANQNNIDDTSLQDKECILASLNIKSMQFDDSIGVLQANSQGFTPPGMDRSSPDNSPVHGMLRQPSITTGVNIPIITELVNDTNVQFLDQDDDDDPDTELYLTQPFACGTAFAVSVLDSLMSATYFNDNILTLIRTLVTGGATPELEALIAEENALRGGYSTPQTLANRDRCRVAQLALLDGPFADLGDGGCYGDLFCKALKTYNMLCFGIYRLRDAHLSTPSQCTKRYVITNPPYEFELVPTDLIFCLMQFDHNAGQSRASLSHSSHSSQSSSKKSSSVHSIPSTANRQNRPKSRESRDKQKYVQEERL
T3 sequence (Q28067 whole entry partner): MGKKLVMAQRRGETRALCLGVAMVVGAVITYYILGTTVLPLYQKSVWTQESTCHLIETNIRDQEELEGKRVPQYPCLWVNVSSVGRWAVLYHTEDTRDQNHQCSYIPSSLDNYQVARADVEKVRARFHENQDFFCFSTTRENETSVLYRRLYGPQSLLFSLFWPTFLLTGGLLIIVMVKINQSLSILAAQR
T4 sequence (P17659 whole entry): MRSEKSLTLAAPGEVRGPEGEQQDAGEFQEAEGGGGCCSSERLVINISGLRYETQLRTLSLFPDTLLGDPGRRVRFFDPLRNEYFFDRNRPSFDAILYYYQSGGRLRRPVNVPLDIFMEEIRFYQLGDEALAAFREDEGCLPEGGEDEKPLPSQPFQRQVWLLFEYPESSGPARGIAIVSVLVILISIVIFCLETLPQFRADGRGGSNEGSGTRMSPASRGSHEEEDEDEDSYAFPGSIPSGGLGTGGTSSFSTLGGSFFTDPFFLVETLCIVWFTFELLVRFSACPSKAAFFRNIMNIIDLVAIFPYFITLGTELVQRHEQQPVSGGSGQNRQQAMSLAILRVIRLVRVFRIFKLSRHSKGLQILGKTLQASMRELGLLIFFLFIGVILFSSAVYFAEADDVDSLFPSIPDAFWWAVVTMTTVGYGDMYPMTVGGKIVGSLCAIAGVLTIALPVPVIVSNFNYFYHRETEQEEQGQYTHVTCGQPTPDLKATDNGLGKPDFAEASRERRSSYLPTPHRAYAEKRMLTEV
T2 sequence (P19024 whole entry): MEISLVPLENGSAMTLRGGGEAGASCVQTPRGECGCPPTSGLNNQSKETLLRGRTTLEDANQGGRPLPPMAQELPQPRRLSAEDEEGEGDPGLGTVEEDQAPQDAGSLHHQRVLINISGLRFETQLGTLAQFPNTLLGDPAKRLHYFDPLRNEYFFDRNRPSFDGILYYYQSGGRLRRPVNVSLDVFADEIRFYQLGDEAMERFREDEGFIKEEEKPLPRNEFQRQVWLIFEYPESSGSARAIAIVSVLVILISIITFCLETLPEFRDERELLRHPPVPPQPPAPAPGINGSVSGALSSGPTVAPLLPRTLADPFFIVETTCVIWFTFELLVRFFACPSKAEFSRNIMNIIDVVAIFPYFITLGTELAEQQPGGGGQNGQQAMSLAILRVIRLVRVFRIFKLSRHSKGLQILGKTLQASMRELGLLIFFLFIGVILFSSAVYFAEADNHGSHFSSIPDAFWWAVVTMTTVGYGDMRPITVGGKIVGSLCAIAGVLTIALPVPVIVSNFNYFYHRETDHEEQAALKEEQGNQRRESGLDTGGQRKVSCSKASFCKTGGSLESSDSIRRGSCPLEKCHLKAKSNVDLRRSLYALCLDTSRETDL

CC[C@H](C)[C@H](NC(=O)[C@@H](N)[C@@H](C)O)C(=O)N[C@H](C(=O)N[C@@H](CC(N)=O)C(=O)N[C@H](C(=O)N[C@@H](CCCCN)C(=O)N[C@H]1CSSC[C@@H]2NC(=O)[C@H](CCCCN)NC(=O)[C@H](C)NC(=O)CNC(=O)[C@H](C)NC(=O)[C@H](CO)NC(=O)[C@H](CCC(N)=O)NC(=O)CNC(=O)[C@H](Cc3ccccc3)NC(=O)[C@H](CCC(N)=O)NC(=O)[C@H](C)NC(=O)[C@H](CCCCN)NC(=O)[C@@H]3CSSC[C@@H](C(=O)N[C@@H](Cc4ccc(O)cc4)C(=O)N4CCC[C@H]4C(=O)N[C@@H](Cc4c[nH]cn4)C(=O)O)NC(=O)[C@H](CCCCN)NC(=O)[C@H](CSSC[C@H](NC(=O)[C@H](CCC(N)=O)NC(=O)[C@H](CCCCN)NC(=O)[C@@H]4CCCN4C(=O)[C@H](CO)NC(=O)[C@H]([C@@H](C)O)NC1=O)C(=O)N[C@@H](CC(C)C)C(=O)N1CCC[C@H]1C(=O)N1CCC[C@H]1C(=O)N3)NC(=O)[C@H](CCCCN)NC(=O)CNC(=O)[C@H](CC(N)=O)NC(=O)[C@H](CCSC)NC2=O)C(C)C)[C@@H](C)CC [MgTX, Margatoxin] (HELM PEPTIDE1{T.I.I.N.V.K.C.T.S.P.K.Q.C.L.P.P.C.K.A.Q.F.G.Q.S.A.G.A.K.C.M.N.G.K.C.K.C.Y.P.H}$PEPTIDE1,PEPTIDE1,7:R3-29:R3|PEPTIDE1,PEPTIDE1,13:R3-34:R3|PEPTIDE1,PEPTIDE1,17:R3-36:R3$$$V2.0; N-terminus and C-terminus assumed; bridges inferred)
Hill coefficient [1]: 2 | IC50 ([1]; isotonic sucrose, pH 8.0, read-out: IC50 for inhibition of [125I]ChTX binding): 0.0014 nM | sensitivity of cloned channel Kv 5 to block [2]: completely insensitive | effect on [125I]ChTX binding to the Maxi-K channel in smooth muscle membranes [3]: no effect | effect on three ChTX-sensitive Ca2+-activated K+ channels of lymphocytes [4]: no effect | IC50 [5]: 5 nM | effect on activation and proliferation mediated by Ca2+-dependent pathways [6]: prevent activation and proliferation | effect on membrane potential of human T cells [6]: depolarize human T cells
